Reference: PubChem BioAssay (NCI)
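Cultured in 96-well plates, cells were exposed to test compound for 48 hours across five concentrations. At the TGI there is no net growth.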

Tests used:
Assay in all cases: inhibition of tumour cell growth, NCI panel, 48 h
[1] = system: ACHN renal
[2] = system: SK-MEL-2 melanoma
[3] = system: MOLT-4 leukemia
[4] = system: OVCAR-5 ovarian
[5] = system: NCI-H522 lung
[6] = system: HS 578T breast
[7] = system: HCT-116 colon
[8] = system: SF-295 CNS
[9] = system: HOP-92 NSCLC
[10] = system: HL-60(TB) leukemia
[11] = system: COLO 205 colon
[12] = system: PC-3 prostate
[13] = system: MALME-3M melanoma
[14] = system: MCF7 breast
[15] = system: M14 melanoma
[16] = system: HCT-15 colon
[17] = system: SNB-19 CNS
[18] = system: A549 NSCLC
[19] = system: UO-31 renal

SMILES: COc1ccc(CNc2nc(NCc3ccc(OC)cc3)nc(NC3CCCC3)n2)cc1
- TGI [1]: > 100 µM
- TGI [2]: > 100 µM
- TGI [3]: > 100 µM
- TGI [4]: > 44.7 µM
- TGI [5]: > 19.9 µM
- TGI [6]: > 21.3 µM
- TGI [7]: 10.1 µM
- TGI [8]: > 31.5 µM
- TGI [9]: > 100 µM
- TGI [10]: > 28.3 µM
- TGI [11]: > 25.1 µM
- TGI [12]: > 100 µM
- TGI [13]: > 100 µM
- TGI [14]: 9.83 µM
- TGI [15]: > 100 µM
- TGI [16]: > 20.6 µM
- TGI [17]: > 100 µM
- TGI [18]: > 67.7 µM
- TGI [19]: > 91.1 µM

SMILES: O=[N+]([O-])c1ccc2sc(/C=N/c3ccccn3)cc2c1
- TGI [1]: > 100 µM
- TGI [2]: > 100 µM
- TGI [3]: 53.5 µM
- TGI [4]: > 100 µM
- TGI [5]: > 100 µM
- TGI [6]: > 100 µM
- TGI [7]: > 100 µM
- TGI [8]: > 100 µM
- TGI [9]: > 100 µM
- TGI [10]: > 100 µM
- TGI [11]: > 100 µM
- TGI [12]: > 100 µM
- TGI [13]: > 100 µM
- TGI [14]: > 100 µM
- TGI [15]: > 100 µM
- TGI [16]: > 100 µM
- TGI [17]: > 100 µM
- TGI [18]: > 100 µM
- TGI [19]: > 100 µM

SMILES: O=C(O)CCCNc1ncc2c(n1)-c1ccccc1OC2
- TGI [1]: > 100 µM
- TGI [2]: > 100 µM
- TGI [3]: > 100 µM
- TGI [4]: > 100 µM
- TGI [5]: > 100 µM
- TGI [6]: > 100 µM
- TGI [7]: > 100 µM
- TGI [8]: > 100 µM
- TGI [9]: > 100 µM
- TGI [10]: > 100 µM
- TGI [11]: > 100 µM
- TGI [12]: > 100 µM
- TGI [13]: > 100 µM
- TGI [14]: > 100 µM
- TGI [15]: > 100 µM
- TGI [16]: > 100 µM
- TGI [17]: > 100 µM
- TGI [18]: > 100 µM
- TGI [19]: > 100 µM

SMILES: CCOC(=O)/C(C(=S)NCc1ccccc1)=C(/N)N1CCCC1
- TGI [1]: > 100 µM
- TGI [2]: > 100 µM
- TGI [3]: > 100 µM
- TGI [4]: > 100 µM
- TGI [5]: > 100 µM
- TGI [6]: > 100 µM
- TGI [7]: > 100 µM
- TGI [8]: > 100 µM
- TGI [9]: > 100 µM
- TGI [10]: > 100 µM
- TGI [11]: > 100 µM
- TGI [12]: > 100 µM
- TGI [13]: > 100 µM
- TGI [14]: > 100 µM
- TGI [15]: > 100 µM
- TGI [16]: > 100 µM
- TGI [17]: > 100 µM
- TGI [18]: > 100 µM
- TGI [19]: > 100 µM

SMILES: CCC/C(Cl)=N/OC(NC(=O)OCC)(C(F)(F)F)C(F)(F)F
- TGI [1]: 32.3 µM
- TGI [2]: > 100 µM
- TGI [3]: 71.4 µM
- TGI [4]: 33.2 µM
- TGI [5]: > 100 µM
- TGI [6]: 77.3 µM
- TGI [7]: 34.6 µM
- TGI [8]: > 100 µM
- TGI [9]: 36.2 µM
- TGI [10]: 48.2 µM
- TGI [11]: 36.9 µM
- TGI [12]: > 100 µM
- TGI [13]: 29.6 µM
- TGI [14]: 43.5 µM
- TGI [15]: 32.1 µM
- TGI [16]: 40.6 µM
- TGI [17]: > 100 µM
- TGI [18]: > 100 µM
- TGI [19]: 33.8 µM

SMILES: COC(=O)c1cc(O)c(O)c(O)c1-c1c(O)c(O)c(O)c(SC[C@H](NC(=O)OCc2ccccc2)C(=O)OCc2ccccc2)c1C(=O)OC
- TGI [1]: 61.1 µM
- TGI [2]: 52.9 µM
- TGI [3]: 43.4 µM
- TGI [4]: > 100 µM
- TGI [5]: 59.3 µM
- TGI [6]: > 100 µM
- TGI [7]: 35.7 µM
- TGI [8]: > 100 µM
- TGI [9]: > 100 µM
- TGI [10]: 39.8 µM
- TGI [11]: 48.4 µM
- TGI [12]: 62.7 µM
- TGI [13]: > 100 µM
- TGI [14]: 43.1 µM
- TGI [15]: 36.8 µM
- TGI [16]: > 100 µM
- TGI [17]: > 100 µM
- TGI [18]: 36.3 µM

SMILES: CCS(=O)c1c2cc(OC)ccc2nc2ccc(OC)cc12 (stereo not given)
- TGI [1]: 13 µM
- TGI [2]: 35.3 µM
- TGI [3]: > 23.8 µM
- TGI [4]: 41.7 µM
- TGI [5]: 3.97 µM
- TGI [6]: 38.9 µM
- TGI [7]: 7.52 µM
- TGI [8]: 63.4 µM
- TGI [9]: > 53.1 µM
- TGI [10]: > 100 µM
- TGI [11]: 15.4 µM
- TGI [12]: 24.9 µM
- TGI [13]: 12.6 µM
- TGI [14]: > 100 µM
- TGI [15]: 37.6 µM
- TGI [16]: > 52.5 µM
- TGI [17]: 45.4 µM
- TGI [18]: 51.1 µM
- TGI [19]: 13.1 µM

SMILES: CC(C)OC(=O)[C@H]1ON2O[C@H](O[C@@H]3CCCC[C@H]3c3ccccc3)C([Si](C)(C)c3ccccc3)[C@H]3OC(=O)[C@@H]1C32 (stereo not given in full)
- TGI [1]: > 100 µM
- TGI [2]: > 100 µM
- TGI [3]: > 100 µM
- TGI [5]: > 100 µM
- TGI [6]: > 100 µM
- TGI [7]: > 100 µM
- TGI [8]: > 100 µM
- TGI [9]: > 100 µM
- TGI [10]: > 100 µM
- TGI [11]: > 100 µM
- TGI [12]: > 100 µM
- TGI [14]: > 100 µM
- TGI [15]: > 100 µM
- TGI [16]: > 100 µM
- TGI [17]: > 100 µM
- TGI [18]: > 100 µM
- TGI [19]: > 100 µM

SMILES: Cc1ccc(S(=O)(=O)N/N=C2\CCC3(O)CC2(C)CCC2C3CC2(C)C)cc1 (stereo not given)
- TGI [1]: > 100 µM
- TGI [2]: 87.1 µM
- TGI [3]: > 100 µM
- TGI [4]: > 100 µM
- TGI [5]: 52.9 µM
- TGI [6]: 95.6 µM
- TGI [7]: > 100 µM
- TGI [8]: > 100 µM
- TGI [9]: > 100 µM
- TGI [10]: > 100 µM
- TGI [11]: 46.5 µM
- TGI [12]: 66.2 µM
- TGI [13]: > 100 µM
- TGI [14]: > 100 µM
- TGI [15]: > 100 µM
- TGI [16]: > 100 µM
- TGI [17]: > 100 µM
- TGI [18]: > 100 µM
- TGI [19]: 80.3 µM

SMILES: COC(=O)c1c(O)ccc2c1c1c(n2Cc2ccccc2OC)C(=O)c2ccccc2C1=O
- TGI [1]: 29.7 µM
- TGI [2]: 32.5 µM
- TGI [3]: 1.42 µM
- TGI [4]: 40.1 µM
- TGI [5]: 26.8 µM
- TGI [6]: 53.2 µM
- TGI [7]: 16.6 µM
- TGI [8]: 63.6 µM
- TGI [9]: 22.4 µM
- TGI [10]: 18.3 µM
- TGI [11]: 3.31 µM
- TGI [12]: 24.5 µM
- TGI [13]: 40.5 µM
- TGI [14]: 43.7 µM
- TGI [15]: 22.6 µM
- TGI [16]: 20 µM
- TGI [17]: 95.9 µM
- TGI [18]: 20.2 µM
- TGI [19]: 36.9 µM

SMILES: CN(C)CCCNC(=O)c1cc(NS(=O)(=O)c2ccc3c(c2)C(=O)c2ccccc2C3=O)cn1C
- TGI [1]: 49.5 µM
- TGI [2]: > 100 µM
- TGI [3]: > 100 µM
- TGI [4]: > 100 µM
- TGI [5]: 52.5 µM
- TGI [6]: > 100 µM
- TGI [7]: > 100 µM
- TGI [8]: 94.9 µM
- TGI [9]: > 100 µM
- TGI [10]: 62.3 µM
- TGI [11]: > 100 µM
- TGI [12]: > 100 µM
- TGI [13]: 18.7 µM
- TGI [14]: 46.4 µM
- TGI [15]: 62.8 µM
- TGI [16]: > 100 µM
- TGI [17]: 39.6 µM
- TGI [18]: > 100 µM
- TGI [19]: > 100 µM

SMILES: CO[C@]12S[C@@H]3CCCC[C@@]31C(C)(C)C(=O)N2c1ccccc1
- TGI [1]: > 100 µM
- TGI [2]: 95.5 µM
- TGI [3]: 78.2 µM
- TGI [4]: > 100 µM
- TGI [5]: > 100 µM
- TGI [6]: > 100 µM
- TGI [7]: > 100 µM
- TGI [8]: 51.1 µM
- TGI [9]: > 100 µM
- TGI [10]: 42.5 µM
- TGI [11]: 44 µM
- TGI [12]: 96.7 µM
- TGI [13]: > 100 µM
- TGI [14]: > 100 µM
- TGI [15]: > 100 µM
- TGI [16]: > 100 µM
- TGI [17]: > 100 µM
- TGI [18]: > 100 µM
- TGI [19]: > 100 µM
